Assays:
Type in all cases: cell-based
[1] = test system: human primary T cells; experiment: IL15-dependent expansion: T cell numbers and CD4/CD8 ratio by flow cytometry
Protocol: (§1) To test IL15-dependent expansion, beads were removed on day 10 and cells were washed. […] The T cell numbers (Table 30) and the change in CD4/CD8 ratio (Table 31) were determined by flow cytometry.

[2] = test system: human primary T cells; experiment: Expression of IL15 chimeric constructs by flow cytometry (percent IL15 positive cells); conditions: for percentage of IL15 positive cells: human primary T cells, day 6, no ligand stated
Description: In vitro activity of IL15 chimeric constructs OT-002019 ((Met; CD34 (aa 1-32 of WT, M1G, S32A); IL15 (30-162 of WT); Linker ((GS)15); CD8a Hinge and Transmembrane Domain; Linker (GS); stop), amino acid SEQ ID NO: 210876, nucleic acid SEQ ID NO: 210877) and OT-002090 ((Ig Kappa light chain leader; IL15 (49-162 of WT); Linker ((GS)15); B7-1 Hinge, Transmembrane Domain and Tail; Linker (GS); stop), amino acid SEQ ID NO: 210878, nucleic acid SEQ ID NO: 210879) and CA2 regulated IL15 chimeric construct (OT-002094) were tested in human primary T cells. Human primary T cells were transduced with lentivirus 24 hours after activation with CD3/CD28 beads. Cells were expanded for 10 days. […] The percentage of IL15 positive cells obtained for each treatment group is as follows (a) OT-002019: 82.3% (b) OT-002090: 43.6% (c) OT-002094 with DMSO: 0.7% (d) OT-002094 with 10 μM Acz: 27.9% and (e) untransduced (UT): 0.3%.
as §1

[3] = test system: NIH3T3 cells; experiment: Destabilization mutant screening of human CA2 linked to GFP, ligand response by FACS (Valdecoxib, Celecoxib, Acetazolamide)
Protocol: To identify destabilizing mutations of human CA2 that are stabilized upon ligand binding to CA2, two rounds of mutant screening were performed, using a lentivirus CA2 mutant library provided by Genscript (China). These methods were used to generate a library of mutant polypeptides using mutagenesis primers and error prone PCR. Lentiviral vectors expressing the template, wild-type human CA2 operably linked to GFP(OT-001986) was also provided by Genscript along with the CA2 mutant library. The library was packaged into lentivirus, transduced into NIH3T3 cells at a multiplicity of infection (MOI) of approximately 0.3 and select stable cell pools were derived by selecting with selection marker puromycin.
To identify cell pools containing destabilizing mutants of CA2 that are stabilizing when CA2 is bound to its corresponding ligand, cells were sorted using FACS. In the initial round, the bottom 15% of population that was GFP negative in the absence of ligand was selected. Cells were expanded and then treated with 10 μM Celecoxib for 24 hours and harvested for cell sorting. The top 11% GFP positive cells which were also responsive to ligand treatment compared to untreated were collected. Celecoxib was removed from the cultures and replaced with DMSO. […] Genomic DNA was isolated and amplified CA2 mutants were reintroduced to the lentiviral vectors where CA2 was operably linked to GFP. The constructs were transduced into NIH3T3 cells with lentivirus vectors for each clone. The cells were treated with 10 μM Valdecoxib or 10 μM Celecoxib for 24 hours and analyzed by FACS. […] In Table 25, the Construct ID (OT-XXXXXX) refers to the construct which includes the referenced CA2 mutant and the Library ID (LibCXXXXXX) refers to the CA2 mutant itself.
The response of NIH3T3 cells to varying doses of Valdecoxib or Celecoxib for 24 hours was measured and analyzed by FACS.
Clones treated with different ligands were compared to examine the behavior of each mutant with the ligands.

[4] = test system: NIH3T3 cells; experiment: Immunoblotting of cell lysates for GFP after ligand treatment; conditions: NIH3T3 cells, 0.3, 1, 3, 10 or 30 μM Acetazolamide, 24 hours
Protocol: The protein expression in the presence of ligand was measured by immunoblotting the cell lysates for GFP.
The protein expression in the presence of ligand was measured by immunoblotting cell lysates for GFP.

[5] = NIH3T3, 10 μM Celecoxib vs DMSO
[6] = NIH3T3, 10 μM Valdecoxib vs DMSO
[7] = NIH3T3, Celecoxib μM (concentration not given)
[8] = NIH3T3, Valdecoxib μM (concentration not given)
[9] = day 0 in culture, untransduced T cells + exogenous IL15 1 ng/ml
[10] = day 3 in culture, untransduced T cells + exogenous IL15 1 ng/ml
[11] = day 7 in culture, untransduced T cells + exogenous IL15 1 ng/ml
[12] = day 10 in culture, untransduced T cells + exogenous IL15 1 ng/ml

Substance: (Ig Kappa light chain leader; IL15 (49-162 of WT); Linker ((GS)15); B7-1 Hinge, Transmembrane Domain and Tail; Linker (GS); stop) [OT-002090]
- CD4/CD8 Ratio ([1]; day 0 in culture, media alone): 3.79
- T Cell Numbers ([1]; day 0 in culture, media alone): 1.0E+06
- CD4/CD8 Ratio ([1]; day 3 in culture, media alone): 0.66
- T Cell Numbers ([1]; day 3 in culture, media alone): 1.3E+06
- CD4/CD8 Ratio ([1]; day 7 in culture, media alone): 0.09
- T Cell Numbers ([1]; day 7 in culture, media alone): 4.1E+06
- CD4/CD8 Ratio ([1]; day 10 in culture, media alone): 0.04
- T Cell Numbers ([1]; day 10 in culture, media alone): 1.0E+07
- Percent of cells IL15 positive ([2]; day 0 in culture, media alone): 30%
- Percent of cells IL15 positive ([2]; day 3 in culture, media alone): 40%
- Percent of cells IL15 positive ([2]; day 7 in culture, media alone): 38%
- Percent of cells IL15 positive ([2]; day 10 in culture, media alone): 16%
- percentage of IL15 positive cells [2]: 43.6%

Substance: (Met; CD34 (aa 1-32 of WT, M1G, S32A); IL15 (30-162 of WT); Linker ((GS)15); CD8a Hinge and Transmembrane Domain; Linker (GS); stop) [OT-002019]
- CD4/CD8 Ratio ([1]; day 0 in culture, 3 uM ACZ): 2.51
- T Cell Numbers ([1]; day 0 in culture, 3 uM ACZ): 1.0E+06
- CD4/CD8 Ratio ([1]; day 0 in culture, 10 uM ACZ): 2.51
- T Cell Numbers ([1]; day 0 in culture, 10 uM ACZ): 1.0E+06
- CD4/CD8 Ratio ([1]; day 0 in culture, media alone): 2.51
- T Cell Numbers ([1]; day 0 in culture, media alone): 1.0E+06
- CD4/CD8 Ratio ([1]; day 3 in culture, 3 uM ACZ): 0.46
- T Cell Numbers ([1]; day 3 in culture, 3 uM ACZ): 1.7E+06
- CD4/CD8 Ratio ([1]; day 3 in culture, 10 uM ACZ): 0.47
- T Cell Numbers ([1]; day 3 in culture, 10 uM ACZ): 1.7E+06
- CD4/CD8 Ratio ([1]; day 3 in culture, media alone): 0.45
- T Cell Numbers ([1]; day 3 in culture, media alone): 2.0E+06
- CD4/CD8 Ratio ([1]; day 7 in culture, 3 uM ACZ): 0.06
- T Cell Numbers ([1]; day 7 in culture, 3 uM ACZ): 5.7E+06
- CD4/CD8 Ratio ([1]; day 7 in culture, 10 uM ACZ): 0.07
- T Cell Numbers ([1]; day 7 in culture, 10 uM ACZ): 5.6E+06
- CD4/CD8 Ratio ([1]; day 7 in culture, media alone): 0.06
- T Cell Numbers ([1]; day 7 in culture, media alone): 6.7E+06
- CD4/CD8 Ratio ([1]; day 10 in culture, 3 uM ACZ): 0.02
- T Cell Numbers ([1]; day 10 in culture, 3 uM ACZ): 1.7E+07
- CD4/CD8 Ratio ([1]; day 10 in culture, 10 uM ACZ): 0.03
- T Cell Numbers ([1]; day 10 in culture, 10 uM ACZ): 1.6E+07
- CD4/CD8 Ratio ([1]; day 10 in culture, media alone): 0.02
- T Cell Numbers ([1]; day 10 in culture, media alone): 2.1E+07
- Percent of cells IL15 positive ([2]; day 0 in culture, 3 uM ACZ): 75%
- Percent of cells IL15 positive ([2]; day 0 in culture, 10 uM ACZ): 75%
- Percent of cells IL15 positive ([2]; day 0 in culture, media alone): 75%
- Percent of cells IL15 positive ([2]; day 3 in culture, 3 uM ACZ): 82%
- Percent of cells IL15 positive ([2]; day 3 in culture, 10 uM ACZ): 82%
- Percent of cells IL15 positive ([2]; day 3 in culture, media alone): 82%
- Percent of cells IL15 positive ([2]; day 7 in culture, 3 uM ACZ): 84%
- Percent of cells IL15 positive ([2]; day 7 in culture, 10 uM ACZ): 85%
- Percent of cells IL15 positive ([2]; day 7 in culture, media alone): 84%
- Percent of cells IL15 positive ([2]; day 10 in culture, 3 uM ACZ): 78%
- Percent of cells IL15 positive ([2]; day 10 in culture, 10 uM ACZ): 79%
- Percent of cells IL15 positive ([2]; day 10 in culture, media alone): 76%
- percentage of IL15 positive cells [2]: 82.3%

Substance: CA2 (aa 2-260 of WT, G12R) [LibC000211]
- Median PE ([3]; NIH3T3, 10 μM Celecoxib): 20800
- SR (stabilization ratio) [3, 5]: 1.6
- Median PE ([3]; NIH3T3, 10 μM Valdecoxib): 19800
- SR (stabilization ratio) [3, 6]: 1.52
- MFI, comparative analysis, normalized to parental day 1 [3, 7]: 16550.54
- MFI, comparative analysis ([3]; NIH3T3, DMSO): 10344.09
- Median PE ([3]; NIH3T3, DMSO): 13000
- SR (stabilization ratio) ([3]; NIH3T3, DMSO (reference)): 1
- MFI, comparative analysis, normalized to parental day 1 [3, 8]: 15754.84

Substance: CA2 (aa 2-260 of WT, H17D, P30S, G81V, K132R, S151I, A152D, A173G, W191*) [LibC000191]
- Median PE ([3]; NIH3T3, 10 μM Celecoxib): 173
- SR (stabilization ratio) [3, 5]: 1.08
- Median PE ([3]; NIH3T3, 10 μM Valdecoxib): 177
- SR (stabilization ratio) [3, 6]: 1.11
- Median PE ([3]; NIH3T3, DMSO): 160
- SR (stabilization ratio) ([3]; NIH3T3, DMSO (reference)): 1

Substance: CA2 (aa 2-260 of WT, I59N, G102R) [LibC000184]
- MFI, comparative analysis ([3]; NIH3T3, Acetazolamide 10 μM): 9295
- MFI, comparative analysis ([3]; NIH3T3, Acetazolamide 30 μM): 10900
- MFI, comparative analysis, normalized to parental day 1 [3, 7]: 4660.217
- MFI, comparative analysis ([3]; NIH3T3, DMSO): 380
- MFI, comparative analysis, normalized to parental day 1 [3, 8]: 3478.892
- GFP protein expression by immunoblot, Acetazolamide [4]: stabilization of GFP with increasing ligand doses

Substance: CA2 (aa 2-260 of WT, L47R) [LibC000220]
- Median PE ([3]; NIH3T3, 10 μM Celecoxib): 384
- SR (stabilization ratio) [3, 5]: 1.2
- Median PE ([3]; NIH3T3, 10 μM Valdecoxib): 408
- SR (stabilization ratio) [3, 6]: 1.31
- Median PE ([3]; NIH3T3, DMSO): 311
- SR (stabilization ratio) ([3]; NIH3T3, DMSO (reference)): 1

Substance: CA2 (aa 2-260 of WT, N61R, K80M, K212N, N231T, L250P) [LibC000198]
- Median PE ([3]; NIH3T3, 10 μM Celecoxib): 535
- SR (stabilization ratio) [3, 5]: 1.95
- Median PE ([3]; NIH3T3, 10 μM Valdecoxib): 552
- SR (stabilization ratio) [3, 6]: 2
- Median PE ([3]; NIH3T3, DMSO): 275
- SR (stabilization ratio) ([3]; NIH3T3, DMSO (reference)): 1

Substance: CA2 (aa 2-260 of WT, S73F) [LibC000212]
- Median PE ([3]; NIH3T3, 10 μM Celecoxib): 30700
- SR (stabilization ratio) [3, 5]: 1.02
- Median PE ([3]; NIH3T3, 10 μM Valdecoxib): 30700
- SR (stabilization ratio) [3, 6]: 1.02
- Median PE ([3]; NIH3T3, DMSO): 30100
- SR (stabilization ratio) ([3]; NIH3T3, DMSO (reference)): 1

Substance: CA2 (aa 2-260 of WT, T35I, Y114H, P154L, D161V, P200A, F225L, E233D, W244*) [LibC000188]
- Median PE ([3]; NIH3T3, 10 μM Celecoxib): 225
- SR (stabilization ratio) [3, 5]: 1.09
- Median PE ([3]; NIH3T3, 10 μM Valdecoxib): 228
- SR (stabilization ratio) [3, 6]: 1.11
- Median PE ([3]; NIH3T3, DMSO): 206
- SR (stabilization ratio) ([3]; NIH3T3, DMSO (reference)): 1

Substance: IL15
- CD4/CD8 Ratio [1, 9]: 5.64
- T Cell Numbers [1, 9]: 1.0E+06
- CD4/CD8 Ratio [1, 10]: 2.57
- T Cell Numbers [1, 10]: 3.2E+06
- CD4/CD8 Ratio [1, 11]: 0.64
- T Cell Numbers [1, 11]: 5.4E+06
- CD4/CD8 Ratio [1, 12]: 0.28
- T Cell Numbers [1, 12]: 1.2E+07
- Percent of cells IL15 positive [2, 9]: 0%
- Percent of cells IL15 positive [2, 10]: 1%
- Percent of cells IL15 positive [2, 11]: 0%
- Percent of cells IL15 positive [2, 12]: 1%
